Data on seven compounds can be found in ChEMBL document CHEMBL1154091, “Reaction of the antitumor antibiotic olivomycin I with aryl diazonium salts. Synthesis, cytotoxic and antiretroviral potency of 5-aryldiazenyl-6-O-deglycosyl derivatives of olivomycin I” (Bioorg Med Chem, 2009).

In data set [1] the test system is Coxsackievirus B4. Nature of the data set: Antiviral activity against Coxsackievirus B4 infected in human HeLa cells at subtoxic concentration. The data set is classed as functional, organism-based.
In data set [2] the test system is Punta Toro virus. Nature of the data set: Antiviral activity against Punta Toro virus infected in african green monkey Vero cells at subtoxic concentration. The data set is classed as functional, organism-based.
Data set [3] concerns Influenza A virus. Nature of the data set: Antiviral activity against influenza A virus H1N1:H3N2 infected in […] cells at subtoxic concentration. Type of data set: functional, organism-based.
Data set [4] concerns Human immunodeficiency virus 2. Description: Antiviral activity against HIV2 ROD infected in human CEM cells assessed as drug level required for protection against virus-induced cytopathogenicity after 4 days. The conditions noted are these: Human immunodeficiency virus 2, ISOLATE ROD, CCRF-CEM, 96 h. The data set is classed as functional, organism-based. Background: Damage to the host cells serves as the signal in cytopathic effect assays.

The subject of data set [5] is Human immunodeficiency virus 1. Description: Antiviral activity against HIV1 3B infected in human CEM cells assessed as drug level required for protection against virus-induced cytopathogenicity after 4 days. The conditions noted are these: Human immunodeficiency virus 1, 3B, CCRF-CEM, 96 h. Type of data set: functional, organism-based.
Data set [6] deals with Vesicular stomatitis virus. Description: Antiviral activity against VSV infected in human HeLa cells at subtoxic concentration. Type of data set: functional, organism-based.
Data set [7] concerns Human alphaherpesvirus 2. Nature of the data set: Antiviral activity against HSV2 infected in HEL cells at subtoxic concentration. The data set is classed as functional, organism-based.
A short description of data set [8]: Selectivity index, ratio of IC50 for human CEM cells to EC50 for HIV1 3B. The data set is classed as toxicity, cell-based, CCRF-CEM. The conditions noted are these: read-out: Ratio IC50/EC50.
In data set [9] the test system is Coxsackievirus B4. Description: Antiviral activity against Coxsackievirus B4 infected in african green monkey Vero cells at subtoxic concentration. The data set is classed as functional, organism-based.
Data set [10] has as its system CCRF-CEM. Description: Antiproliferative against human CEM cells after 72 hrs. The data set is classed as cell-based.
The test system of data set [11] is Respiratory syncytial virus. Description: Antiviral activity against Respiratory syncytial virus infected in human HeLa cells at subtoxic concentration. The data set is classed as functional, organism-based.
In data set [12] the test system is Vaccinia virus. Description: Antiviral activity against Vaccinia virus infected in HEL cells at subtoxic concentration. The data set is classed as functional, organism-based. The conditions noted are these: Orthopoxvirus vaccinia.
The test system of data set [13] is Mammalian orthoreovirus 1. Nature of the data set: Antiviral activity against Reovirus 1 infected in african green monkey Vero cells at subtoxic concentration. The data set is classed as functional, organism-based.
Data set [14] has as its target T1, DNA topoisomerase 1 (Homo sapiens) (UniProt P11387).
T1 sequence (whole entry): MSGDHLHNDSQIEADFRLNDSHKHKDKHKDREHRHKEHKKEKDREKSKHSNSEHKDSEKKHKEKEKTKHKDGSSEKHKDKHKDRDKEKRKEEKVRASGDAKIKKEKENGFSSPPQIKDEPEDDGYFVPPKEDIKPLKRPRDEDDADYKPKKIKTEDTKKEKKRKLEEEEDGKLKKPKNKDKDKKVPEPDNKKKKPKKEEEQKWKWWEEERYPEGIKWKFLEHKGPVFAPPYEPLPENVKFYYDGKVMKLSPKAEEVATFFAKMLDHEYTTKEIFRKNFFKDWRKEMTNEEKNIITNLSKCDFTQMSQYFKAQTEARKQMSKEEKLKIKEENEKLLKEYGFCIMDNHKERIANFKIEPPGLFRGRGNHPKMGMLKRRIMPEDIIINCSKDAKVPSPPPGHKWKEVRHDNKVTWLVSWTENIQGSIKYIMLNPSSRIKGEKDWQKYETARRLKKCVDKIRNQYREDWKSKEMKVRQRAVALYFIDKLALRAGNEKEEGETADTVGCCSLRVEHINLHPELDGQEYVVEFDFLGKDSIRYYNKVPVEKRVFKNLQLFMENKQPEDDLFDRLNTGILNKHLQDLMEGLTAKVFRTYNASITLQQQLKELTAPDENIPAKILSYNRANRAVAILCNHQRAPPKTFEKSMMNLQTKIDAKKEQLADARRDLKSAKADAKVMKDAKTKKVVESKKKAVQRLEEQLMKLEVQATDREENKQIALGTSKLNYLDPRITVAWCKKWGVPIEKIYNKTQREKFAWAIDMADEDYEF
Description: Inhibition of DNA topoisomerase 1 assessed as inhibition of unwinding of supercoiled pBR322 DNA at 20 uM by agarose gel electrophoresis.

The test system of data set [15] is Vesicular stomatitis virus. Description: Antiviral activity against VSV infected in HEL cells at subtoxic concentration. The data set is classed as functional, organism-based.
The subject of data set [16] is Human respirovirus 3. Nature of the data set: Antiviral activity against Parainfluenza virus 3 infected in african green monkey Vero cells at subtoxic concentration. The data set is classed as functional, organism-based.
Data set [17] deals with Influenza B virus. Description: Antiviral activity against influenza B virus infected in […] cells at subtoxic concentration. Type of data set: functional, organism-based.
Data set [18] has as its system Human alphaherpesvirus 1. Nature of the data set: Antiviral activity against HSV1 infected in HEL cells at subtoxic concentration. Type of data set: functional, organism-based.
For data set [19], the system named is Sindbis virus. Description: Antiviral activity against Sindbis virus infected in african green monkey Vero cells at subtoxic concentration. Type of data set: functional, organism-based.
Data set [20] concerns L1210. Description: Antiproliferative against mouse L1210 cells after 48 hrs. The data set is classed as functional, cell-based. The conditions noted are these: L1210, 48 h.
The nature of data set [21]: Antiproliferative against human Molt4/C8 cells after 72 hrs. The conditions noted are these: MOLT-4, 72 h. Type of data set: functional, cell-based.
Data set [22] relates to K562. Nature of the data set: Antiproliferative against human K562 cells after 72 hrs. The data set is classed as functional, cell-based. The conditions noted are these: K562, 72 h.
The target in data set [23] is T1, DNA topoisomerase 1 (Homo sapiens). Description: Inhibition of DNA topoisomerase 1 assessed as partial inhibition of unwinding of supercoiled pBR322 DNA at 20 uM by agarose gel electrophoresis.
Data set [24] deals with HCT-116. Description: Antiproliferative against human HCT116 cells after 72 hrs. Type of data set: functional, cell-based. The conditions noted are these: HCT-116, 72 h.
The target of data set [25] is T1, DNA topoisomerase 1 (Homo sapiens). Description: Inhibition of DNA topoisomerase 1 assessed as partial inhibition of unwinding of supercoiled pBR322 DNA at 5 uM by agarose gel electrophoresis.
Data set [26] has the same target. Nature of the data set: Inhibition of DNA topoisomerase 1 assessed as inhibition of unwinding of supercoiled pBR322 DNA at 10 to 20 uM by agarose gel electrophoresis.

Activity calls are given as the source filed them. No cut-off for these calls is given here. Where only a bound is given, the exact number is not on record here.

With `CO[C@H](C(=O)[C@@H](O)[C@@H](C)O)[C@@H]1Cc2cc3c(/N=N/c4ccc(Cl)c(Cl)c4)c(O)cc(O)c3c(O)c2C(=O)[C@H]1O[C@H]1C[C@@H](O[C@H]2C[C@@H](O[C@H]3C[C@](C)(O)[C@@H](OC(=O)C(C)C)[C@H](C)O3)[C@H](O)[C@@H](C)O2)[C@H](O)[C@@H](C)O1`, the result in [1], in data set [2], in [3], in data set [6], in data set [7] and in data set [9] was inactive. Moreover, the result in data set [11], in [12], in [13], in [15], in [16] and in data set [17] was inactive. The result in [18] and in data set [19] was inactive. In addition, the concentration for a half-maximal effect (EC50) in [4] is at least 800 nM; in [5], 500 nM. Besides, in [8], the selectivity ratio is 5.2. The IC50 in data set [10] amounted to 2600 nM; in [20], 5600 nM; in [21], 1900 nM. In addition, the outcome in data set [14] was Active.
Regarding `CO[C@H](C(=O)[C@@H](O)[C@@H](C)O)[C@@H]1Cc2cc3c(/N=N/c4ccc(C)cc4)c(O)cc(O)c3c(O)c2C(=O)[C@H]1O[C@H]1C[C@@H](O[C@H]2C[C@@H](O[C@H]3C[C@](C)(O)[C@@H](OC(=O)C(C)C)[C@H](C)O3)[C@H](O)[C@@H](C)O2)[C@H](O)[C@@H](C)O1`, the figures for the IC50 in [22] and in [24] were 2000 nM and 2400 nM, respectively. Also, in data set [23], the result was Active.
Turning to `CO[C@H](C(=O)[C@@H](O)[C@@H](C)O)[C@@H]1Cc2cc3c(/N=N/c4ccc(S(N)(=O)=O)cc4)c(O)cc(O)c3c(O)c2C(=O)[C@H]1O[C@H]1C[C@@H](O[C@H]2C[C@@H](O[C@H]3C[C@](C)(O)[C@@H](OC(=O)C(C)C)[C@H](C)O3)[C@H](O)[C@@H](C)O2)[C@H](O)[C@@H](C)O1`, the result in [1], in [2], in data set [3], in data set [6], in data set [7] and in data set [9] was inactive. For the same compound, the outcome in data set [11], in [12], in data set [13], in [14], in data set [15] and in data set [16] was inactive. In addition, the result in [17], in data set [18] and in data set [19] was inactive. The EC50 in data set [4] is above 100000 nM; in data set [5] it was 50000 nM. Further, in data set [8], the selectivity ratio was above 2. Besides, the IC50 in [10], in [20] and in [21] was above 100000 nM in each case.
In the case of `CO[C@@H]1[C@H](O)C[C@@H](O[C@@H]2C[C@H](Oc3cc(OC(C)=O)c4c(O)c5c(cc4c3)C[C@@H]([C@H](OC)C(=O)[C@@H](O)[C@@H](C)O)[C@H](O[C@H]3C[C@@H](O[C@H]4C[C@@H](O[C@H]6C[C@](C)(O)[C@@H](OC(=O)C(C)C)[C@H](C)O6)[C@H](O)[C@@H](C)O4)[C@H](O)[C@@H](C)O3)C5=O)O[C@H](C)[C@@H]2OC(C)=O)O[C@@H]1C`, the IC50 worked out at 2.4 nM in [10], 8 nM in data set [20] and 22 nM in data set [21].
As to `CO[C@@H]1[C@H](O)C[C@@H](O[C@@H]2C[C@H](Oc3cc(O)c4c(O)c5c(cc4c3)C[C@@H]([C@H](OC)C(=O)[C@@H](O)[C@@H](C)O)[C@H](O[C@H]3C[C@@H](O[C@H]4C[C@@H](O[C@H]6C[C@](C)(O)[C@@H](OC(=O)C(C)C)[C@H](C)O6)[C@H](O)[C@@H](C)O4)[C@H](O)[C@@H](C)O3)C5=O)O[C@H](C)[C@@H]2OC(C)=O)O[C@@H]1C` [OLIVOMYCIN I], the result in [25] and in [26] was Active. The EC50 was 4 nM in [4] and 5 nM in [5]. The IC50 in [22] is 44 nM; in [10] it was 2.5 nM; in data set [24], 55 nM; in data set [20] it was 34 nM; in data set [21] it was 4 nM.
Regarding `COc1ccc(/N=N/c2c(O)cc(O)c3c(O)c4c(cc23)C[C@@H]([C@H](OC)C(=O)[C@@H](O)[C@@H](C)O)[C@H](O[C@H]2C[C@@H](O[C@H]3C[C@@H](O[C@H]5C[C@](C)(O)[C@@H](OC(=O)C(C)C)[C@H](C)O5)[C@H](O)[C@@H](C)O3)[C@H](O)[C@@H](C)O2)C4=O)cc1`, the result in data set [1], in data set [2], in data set [3], in [6], in data set [7] and in data set [9] was inactive. The outcome in [11], in data set [12], in [13], in data set [14], in [15] and in [16] was inactive. Also, the outcome in data set [17], in data set [18] and in data set [19] was inactive. In addition, the figures for the EC50 in data set [4] and in [5] were at least 4000 nM and 500 nM, respectively. In [8], the selectivity ratio was determined as 52. Moreover, the IC50 in data set [10] came to 26000 nM; in data set [20], 20000 nM; in data set [21], 7300 nM.
Turning to `CO[C@H](C(=O)[C@@H](O)[C@@H](C)O)[C@@H]1Cc2cc3c(/N=N/c4ccccc4)c(O)cc(O)c3c(O)c2C(=O)[C@H]1O[C@H]1C[C@@H](O[C@H]2C[C@@H](O[C@H]3C[C@](C)(O)[C@@H](OC(=O)C(C)C)[C@H](C)O3)[C@H](O)[C@@H](C)O2)[C@H](O)[C@@H](C)O1`, the result in data set [1], in data set [2], in data set [3], in [6], in [7] and in [9] was inactive. The result in [11], in data set [12], in data set [13], in data set [14], in data set [15] and in data set [16] was inactive. The result in data set [17], in data set [18] and in [19] was inactive. Moreover, the values for the EC50 in data set [4] and in data set [5] were at least 40 nM and 60 nM, respectively. In addition, in data set [8], the selectivity ratio is 30. Further, the IC50 was found to be 1800 nM in data set [10], 6100 nM in data set [20] and 1600 nM in data set [21].

Usually EC50 stands for the concentration giving half of the maximal effect. For orientation: IC50 means the point on the concentration scale where inhibition reaches its midpoint.
